Laboratory results: ChEMBL document CHEMBL3994622, “Design and synthesis of new RAF kinase-inhibiting antiproliferative quinoline derivatives. Part 2: Diarylurea derivatives” (Eur J Med Chem, 2017)

Experiments:
[1] = molecular target: RAF proto-oncogene serine/threonine-protein kinase (Homo sapiens, UniProt P04049); experiment: Inhibition of human c-RAF at 10 uM using MEK1 as substrate in presence of [33P]ATP by Hotspot assay relative to control
RXF 393 = experiment: Growth inhibition of human RXF393 cells incubated for 48 hrs by sulforhodamine B assay; format: functional; settings: RXF 393, 48 h; for CC50: read-out: LC50 (the source's name)
OVCAR-5 = experiment: Growth inhibition of human OVCAR5 cells incubated for 48 hrs by sulforhodamine B assay; format: functional; settings: OVCAR-5, 48 h; for CC50: read-out: LC50 (the source's name)
SK-MEL-2 = experiment: Growth inhibition of human SK-MEL-2 cells incubated for 48 hrs by sulforhodamine B assay; format: functional; settings: SK-MEL-2, 48 h; for CC50: read-out: LC50 (the source's name)
NCI-H460 = experiment: Growth inhibition of human NCI-H460 cells incubated for 48 hrs by sulforhodamine B assay; format: functional; settings: NCI-H460, 48 h; for CC50: read-out: LC50 (the source's name)
SW-620 = experiment: Growth inhibition of human SW620 cells incubated for 48 hrs by sulforhodamine B assay; format: functional; settings: SW-620, 48 h
MDA-MB-231 = experiment: Growth inhibition of human MDA-MB-231 cells incubated for 48 hrs by sulforhodamine B assay; format: functional; settings: MDA-MB-231, 48 h; for CC50: read-out: LC50 (the source's name)
SK-MEL-28 = experiment: Growth inhibition of human SK-MEL-28 cells incubated for 48 hrs by sulforhodamine B assay; format: functional; settings: SK-MEL-28, 48 h; for CC50: read-out: LC50 (the source's name)
OVCAR-8 = experiment: Growth inhibition of human OVCAR8 cells incubated for 48 hrs by sulforhodamine B assay; format: functional; settings: OVCAR-8, 48 h; for CC50: read-out: LC50 (the source's name)
IGROV-1 = experiment: Growth inhibition of human IGROV1 cells incubated for 48 hrs by sulforhodamine B assay; format: functional; settings: IGROV-1, 48 h; for CC50: read-out: LC50 (the source's name)
NCI-H322M = experiment: Growth inhibition of human NCI-H322M cells incubated for 48 hrs by sulforhodamine B assay; format: functional; settings: for CC50: read-out: LC50 (the source's name)
SK-OV-3 = experiment: Growth inhibition of human SKOV3 cells incubated for 48 hrs by sulforhodamine B assay; format: functional; settings: SK-OV-3, 48 h; for CC50: read-out: LC50 (the source's name)
OVCAR-3 = experiment: Growth inhibition of human OVCAR3 cells incubated for 48 hrs by sulforhodamine B assay; format: functional; settings: OVCAR-3, 48 h; for CC50: read-out: LC50 (the source's name)
RPMI-8226 = experiment: Growth inhibition of human RPMI8226 cells incubated for 48 hrs by sulforhodamine B assay; format: functional; settings: RPMI-8226, 48 h
HCT-116 = experiment: Growth inhibition of human HCT116 cells incubated for 48 hrs by sulforhodamine B assay; format: functional; settings: HCT-116, 48 h
A498 = experiment: Growth inhibition of human A498 cells incubated for 48 hrs by sulforhodamine B assay; format: functional; settings: A498, 48 h; for CC50: read-out: LC50 (the source's name)
HCT-15 = experiment: Growth inhibition of human HCT15 cells incubated for 48 hrs by sulforhodamine B assay; format: functional; settings: HCT-15, 48 h
SF-539 = experiment: Growth inhibition of human SF539 cells incubated for 48 hrs by sulforhodamine B assay; format: functional; settings: SF-539, 48 h; for CC50: read-out: LC50 (the source's name)
MOLT-4 = experiment: Growth inhibition of human MOLT4 cells incubated for 48 hrs by sulforhodamine B assay; format: functional; settings: MOLT-4, 48 h
A549 = experiment: Growth inhibition of human A549/ATCC cells incubated for 48 hrs by sulforhodamine B assay; format: functional; settings: A549, 48 h; for CC50: read-out: LC50 (the source's name)
T47D = experiment: Growth inhibition of human T47D cells incubated for 48 hrs by sulforhodamine B assay; format: functional; settings: for CC50: read-out: LC50 (the source's name)
ACHN = experiment: Growth inhibition of human ACHN cells incubated for 48 hrs by sulforhodamine B assay; format: functional; settings: for CC50: read-out: LC50 (the source's name)
HCC 2998 = experiment: Growth inhibition of human HCC2998 cells incubated for 48 hrs by sulforhodamine B assay; format: functional; settings: HCC 2998, 48 h; for CC50: read-out: LC50 (the source's name)
Malme-3M = experiment: Growth inhibition of human MALME-3M cells incubated for 48 hrs by sulforhodamine B assay; format: functional; settings: for CC50: read-out: LC50 (the source's name)
BT-549 = experiment: Growth inhibition of human BT549 cells incubated for 48 hrs by sulforhodamine B assay; format: functional; settings: BT-549, 48 h; for CC50: read-out: LC50 (the source's name)
EKVX = experiment: Growth inhibition of human EKVX cells incubated for 48 hrs by sulforhodamine B assay; format: functional
HOP-92 = experiment: Growth inhibition of human HOP92 cells incubated for 48 hrs by sulforhodamine B assay; format: functional; settings: HOP-92, 48 h
LOX IMVI = experiment: Growth inhibition of human LOXIMVI cells incubated for 48 hrs by sulforhodamine B assay; format: functional
UO-31 = experiment: Growth inhibition of human UO31 cells incubated for 48 hrs by sulforhodamine B assay; format: functional; settings: UO-31, 48 h; for CC50: read-out: LC50 (the source's name)
OVCAR-4 = experiment: Growth inhibition of human OVCAR4 cells incubated for 48 hrs by sulforhodamine B assay; format: functional; settings: OVCAR-4, 48 h; for CC50: read-out: LC50 (the source's name)
U-251 = experiment: Growth inhibition of human U251 cells incubated for 48 hrs by sulforhodamine B assay; format: functional; settings: U-251, 48 h; for CC50: read-out: LC50 (the source's name)
MDA-MB-435 = experiment: Growth inhibition of human MDA-MB-435 cells incubated for 48 hrs by sulforhodamine B assay; format: functional; settings: MDA-MB-435, 48 h; for CC50: read-out: LC50 (the source's name)

Sequence of RAF proto-oncogene serine/threonine-protein kinase (P04049 whole entry): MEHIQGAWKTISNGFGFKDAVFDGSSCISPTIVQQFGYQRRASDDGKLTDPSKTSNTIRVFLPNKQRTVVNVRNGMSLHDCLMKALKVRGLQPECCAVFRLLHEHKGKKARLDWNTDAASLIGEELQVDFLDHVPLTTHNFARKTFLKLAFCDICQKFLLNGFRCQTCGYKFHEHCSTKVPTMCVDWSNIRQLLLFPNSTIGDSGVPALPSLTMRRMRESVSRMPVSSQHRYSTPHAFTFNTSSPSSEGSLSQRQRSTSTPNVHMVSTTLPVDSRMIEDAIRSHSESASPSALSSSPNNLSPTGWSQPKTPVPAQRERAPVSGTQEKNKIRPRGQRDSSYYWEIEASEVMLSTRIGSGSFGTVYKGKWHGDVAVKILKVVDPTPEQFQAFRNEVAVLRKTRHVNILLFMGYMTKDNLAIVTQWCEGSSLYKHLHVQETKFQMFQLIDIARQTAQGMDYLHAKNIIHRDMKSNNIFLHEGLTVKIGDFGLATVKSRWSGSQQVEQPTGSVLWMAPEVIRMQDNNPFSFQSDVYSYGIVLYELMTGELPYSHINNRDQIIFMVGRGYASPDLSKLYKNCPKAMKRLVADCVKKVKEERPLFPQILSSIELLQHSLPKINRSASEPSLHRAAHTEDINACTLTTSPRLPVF

## COc1cc2cc(Oc3ccc(NC(=O)Nc4ccc(Cl)c(Cl)c4)cc3)c(C)nc2cc1OC
[1]
  inhibition: 97.8%
RXF 393
  GI50: 4.28 µM
  TGI: 16.7 µM
  CC50: 65.7 µM
OVCAR-5
  GI50: 10.1 µM
  TGI: 34.3 µM
  CC50: > 100 µM
SK-MEL-2
  GI50: 3 µM
  TGI: 6.55 µM
  CC50: 20.6 µM
NCI-H460
  GI50: 2.46 µM
  TGI: 10.1 µM
  CC50: 45.8 µM
SW-620
  GI50: 4.24 µM
  LC50: 60.9 µM
  TGI: 15.6 µM
MDA-MB-231
  GI50: 2460 nM
  TGI: 12 µM
  CC50: 34.6 µM
SK-MEL-28
  GI50: 3.77 µM
  TGI: 14.7 µM
  CC50: 51.2 µM
OVCAR-8
  GI50: 3.54 µM
  TGI: 12.9 µM
  CC50: 36 µM
IGROV-1
  GI50: 5.61 µM
  TGI: 46.1 µM
  CC50: > 100 µM
NCI-H322M
  GI50: 8.66 µM
  TGI: 60.3 µM
  CC50: > 100 µM
SK-OV-3
  GI50: 7.56 µM
  TGI: 26.4 µM
  CC50: 84.8 µM
OVCAR-3
  GI50: 2.34 µM
  TGI: 6.19 µM
  CC50: 22.2 µM
RPMI-8226
  GI50: 1.62 µM
  LC50 (lethal concentration, 50% cell kill): > 100 µM
  TGI: 5.73 µM
HCT-116
  GI50: 2260 nM
  LC50 (50% lethal concentration): 32.6 µM
  TGI: 10.5 µM
A498
  GI50: 1950 nM
  TGI: 7.93 µM
  CC50: 74.9 µM
HCT-15
  GI50: 3.56 µM
  LC50 (lethal concentration, 50% net cell kill): > 100 µM
  TGI: > 100 µM
SF-539
  GI50: 5.18 µM
  TGI: 22.3 µM
  CC50: 88.8 µM
MOLT-4
  GI50: 3.02 µM
  LC50: > 100 µM
  TGI: 22.8 µM
A549
  GI50: 1.64 µM
  TGI: 7.61 µM
  CC50: 28.3 µM
T47D
  GI50: 2.7 µM
  TGI: 10.1 µM
  CC50: 84.7 µM
ACHN
  GI50: 3 µM
  TGI: 12.1 µM
  CC50: 69.1 µM
HCC 2998
  GI50: 5.54 µM
  TGI: > 100 µM
  CC50: > 100 µM
Malme-3M
  GI50: 3.02 µM
  TGI: 7.72 µM
  CC50: 26.7 µM
BT-549
  GI50: 2.4 µM
  TGI: 11.7 µM
  CC50: 51.6 µM
EKVX
  GI50: 2360 nM
  LC50 (concentration killing 50% of cells): > 100 µM
  TGI: 9.51 µM
HOP-92
  GI50: 2040 nM
  LC50: 14.2 µM
  TGI: 4.88 µM
LOX IMVI
  GI50: 3.45 µM
  TGI: 14.6 µM
LOX IMVI; read-out: LC50 (the source's name)
  CC50: 38.2 µM
UO-31
  GI50: 3.44 µM
  TGI: 12.6 µM
  CC50: 79.6 µM
OVCAR-4
  GI50: 2.67 µM
  TGI: 8.3 µM
  CC50: 35.2 µM
U-251
  GI50: 2.19 µM
  TGI: 7.26 µM
  CC50: 26.5 µM
MDA-MB-435
  GI50: 3.09 µM
  TGI: 16.8 µM
  CC50: > 100 µM

## Cc1nc2cc(O)c(O)cc2cc1Oc1ccc(NC(=O)Nc2ccc(Cl)c(Cl)c2)cc1
RXF 393
  GI50: 9.24 µM
  TGI: > 32.5 µM
  CC50: > 32.5 µM
OVCAR-5
  GI50: 11.6 µM
  TGI: 29.3 µM
  CC50: > 32.5 µM
SK-MEL-2
  GI50: 8.83 µM
  TGI: 21.1 µM
  CC50: > 32.5 µM
NCI-H460
  GI50: 6.95 µM
  TGI: 15.8 µM
  CC50: > 32.5 µM
SW-620
  GI50: 4.9 µM
  LC50: > 32.5 µM
  TGI: > 32.5 µM
MDA-MB-231
  GI50: 2490 nM
  TGI: > 32.5 µM
  CC50: > 32.5 µM
SK-MEL-28
  GI50: 9 µM
  TGI: 30.1 µM
  CC50: > 32.5 µM
OVCAR-8
  GI50: 5.77 µM
  TGI: > 32.5 µM
  CC50: > 32.5 µM
IGROV-1
  GI50: 12.3 µM
  TGI: > 32.5 µM
  CC50: > 32.5 µM
NCI-H322M
  GI50: 14.1 µM
  TGI: > 32.5 µM
  CC50: > 32.5 µM
SK-OV-3
  GI50: 11.7 µM
  TGI: > 32.5 µM
  CC50: > 32.5 µM
OVCAR-3
  GI50: 8.52 µM
  TGI: 19.9 µM
  CC50: > 32.5 µM
RPMI-8226
  GI50: 7.62 µM
  LC50 (lethal concentration, 50% cell kill): > 32.5 µM
  TGI: 20.7 µM
HCT-116
  GI50: 2240 nM
  LC50 (50% lethal concentration): > 32.5 µM
  TGI: 13.6 µM
A498
  GI50: > 32500 nM
  TGI: > 32.5 µM
  CC50: > 32.5 µM
HCT-15
  GI50: 5.47 µM
  LC50 (lethal concentration, 50% net cell kill): > 32.5 µM
  TGI: > 32.5 µM
SF-539
  GI50: 8.86 µM
  TGI: 22.7 µM
  CC50: > 32.5 µM
MOLT-4
  GI50: 8.87 µM
  LC50: > 32.5 µM
  TGI: > 32.5 µM
A549
  GI50: 8.99 µM
  TGI: 26.2 µM
  CC50: > 32.5 µM
T47D
  GI50: 11.6 µM
  TGI: > 32.5 µM
  CC50: > 32.5 µM
ACHN
  GI50: 3.37 µM
  TGI: 17.9 µM
  CC50: > 32.5 µM
HCC 2998
  GI50: 6.7 µM
  TGI: 14.6 µM
  CC50: 32 µM
Malme-3M
  GI50: 8.6 µM
  TGI: 26 µM
  CC50: > 32.5 µM
BT-549
  GI50: 7.5 µM
  TGI: > 32.5 µM
  CC50: > 32.5 µM
HOP-92
  GI50: 2850 nM
  LC50: > 32.5 µM
  TGI: 16.7 µM
UO-31
  GI50: 6.97 µM
  TGI: 14.9 µM
  CC50: 31.9 µM
OVCAR-4
  GI50: 9.73 µM
  TGI: > 32.5 µM
  CC50: > 32.5 µM
U-251
  GI50: 6.58 µM
  TGI: > 32.5 µM
  CC50: > 32.5 µM
MDA-MB-435
  GI50: 6.99 µM
  TGI: > 32.5 µM
  CC50: > 32.5 µM
